According to publication PMC10276812, “Cannabidiol inhibits Nav channels through two distinct binding sites” (Nature Communications, 2023):

Assays:
Format in all cases: cell-based
Nav1.7 [1] = target: T1, Nav1.7 (Homo sapiens, UniProt Q15858, S1320A); assay: whole-cell patch clamp in transfected HEK293T cells
T1 construct: gene SCN9A

Nav1.7 [2] = target: T2, Nav1.7 (Homo sapiens, UniProt Q15858); assay: cryo-EM structure at […] Å; Kd for the inactivated state calculated from patch-clamp (alpha subunit alone)
T2 construct: gene SCN9A; no beta subunit stated for this line
T2 sequence (Q15858 whole entry): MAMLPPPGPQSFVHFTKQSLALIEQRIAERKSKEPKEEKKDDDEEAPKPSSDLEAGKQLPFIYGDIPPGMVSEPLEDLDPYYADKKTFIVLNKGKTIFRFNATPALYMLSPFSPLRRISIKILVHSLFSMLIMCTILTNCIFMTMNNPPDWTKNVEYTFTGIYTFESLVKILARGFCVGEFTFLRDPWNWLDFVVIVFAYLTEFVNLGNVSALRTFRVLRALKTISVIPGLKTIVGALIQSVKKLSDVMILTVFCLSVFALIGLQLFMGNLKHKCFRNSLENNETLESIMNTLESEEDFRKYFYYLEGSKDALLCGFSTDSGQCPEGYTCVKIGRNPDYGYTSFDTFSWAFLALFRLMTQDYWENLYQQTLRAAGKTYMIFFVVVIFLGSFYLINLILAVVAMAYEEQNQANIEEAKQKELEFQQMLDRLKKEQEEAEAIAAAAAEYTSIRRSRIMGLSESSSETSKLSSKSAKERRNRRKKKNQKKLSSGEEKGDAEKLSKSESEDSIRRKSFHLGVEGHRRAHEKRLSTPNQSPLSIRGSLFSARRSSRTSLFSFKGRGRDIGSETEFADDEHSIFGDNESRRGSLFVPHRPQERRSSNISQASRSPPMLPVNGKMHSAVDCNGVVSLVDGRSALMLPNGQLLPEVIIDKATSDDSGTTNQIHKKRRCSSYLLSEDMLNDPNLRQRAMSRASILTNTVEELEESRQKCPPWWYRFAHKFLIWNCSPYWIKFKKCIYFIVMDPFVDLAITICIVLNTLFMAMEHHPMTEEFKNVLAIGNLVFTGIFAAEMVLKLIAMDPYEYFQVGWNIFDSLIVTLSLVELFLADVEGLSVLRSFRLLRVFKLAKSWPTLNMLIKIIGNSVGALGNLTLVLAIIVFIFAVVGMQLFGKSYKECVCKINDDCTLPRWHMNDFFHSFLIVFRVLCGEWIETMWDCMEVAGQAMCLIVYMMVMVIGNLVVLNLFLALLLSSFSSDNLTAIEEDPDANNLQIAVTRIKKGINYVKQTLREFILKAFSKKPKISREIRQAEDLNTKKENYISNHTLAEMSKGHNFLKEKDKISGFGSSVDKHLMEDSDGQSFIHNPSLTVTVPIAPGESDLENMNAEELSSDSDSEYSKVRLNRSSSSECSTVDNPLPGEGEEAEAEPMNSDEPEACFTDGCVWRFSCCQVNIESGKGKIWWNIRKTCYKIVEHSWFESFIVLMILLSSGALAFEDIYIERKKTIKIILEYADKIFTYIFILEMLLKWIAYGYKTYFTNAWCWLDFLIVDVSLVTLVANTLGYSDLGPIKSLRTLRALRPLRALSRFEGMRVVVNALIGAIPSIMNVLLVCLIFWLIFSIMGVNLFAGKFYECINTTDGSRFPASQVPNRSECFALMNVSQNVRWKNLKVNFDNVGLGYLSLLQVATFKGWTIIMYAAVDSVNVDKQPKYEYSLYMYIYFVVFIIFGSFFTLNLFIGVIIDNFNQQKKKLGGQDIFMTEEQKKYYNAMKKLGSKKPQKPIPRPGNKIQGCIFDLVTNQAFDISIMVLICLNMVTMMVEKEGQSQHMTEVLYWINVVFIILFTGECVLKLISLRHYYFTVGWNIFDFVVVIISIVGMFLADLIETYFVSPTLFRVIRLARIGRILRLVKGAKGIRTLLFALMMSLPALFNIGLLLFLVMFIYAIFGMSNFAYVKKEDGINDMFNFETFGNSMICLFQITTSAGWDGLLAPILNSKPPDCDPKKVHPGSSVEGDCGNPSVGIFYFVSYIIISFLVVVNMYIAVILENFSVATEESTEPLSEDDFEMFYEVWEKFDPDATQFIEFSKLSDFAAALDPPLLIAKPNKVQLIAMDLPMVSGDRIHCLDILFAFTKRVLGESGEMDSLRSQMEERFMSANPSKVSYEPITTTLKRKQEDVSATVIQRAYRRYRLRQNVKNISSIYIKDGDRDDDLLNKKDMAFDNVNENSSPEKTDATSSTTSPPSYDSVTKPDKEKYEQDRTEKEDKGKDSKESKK

Nav1.7 [3] = target: T3, Nav1.7 (Homo sapiens, UniProt Q15858, N1459A/S1320A); assay: whole-cell patch clamp in transfected HEK293T cells
T3 construct: gene SCN9A
T3 sequence (Q15858 whole entry S1320A/N1459A): as the sequence (Q15858 whole entry) above, with S1320A, N1459A counted along it

Nav1.7 [4] = target: T4, Nav1.7 (Homo sapiens, UniProt Q15858, F387A); assay: as above
T4 construct: gene SCN9A
T4 sequence (Q15858 whole entry F387A): as the sequence (Q15858 whole entry) above, with F387A counted along it

Nav1.7 [5] = target: T5, Nav1.7 (Homo sapiens, UniProt Q15858, V383A); assay: as above
T5 construct: gene SCN9A
T5 sequence (Q15858 whole entry V383A): as the sequence (Q15858 whole entry) above, with V383A counted along it

Nav1.7 [6] = target: T6, Nav1.7 (Homo sapiens, UniProt Q15858, N1459A); assay: as above
T6 construct: gene SCN9A
T6 sequence (Q15858 whole entry N1459A): as the sequence (Q15858 whole entry) above, with N1459A counted along it

T1 sequence (Q15858 whole entry S1320A): as the sequence (Q15858 whole entry) above, with S1320A counted along it

C=C(C)[C@@H]1CCC(C)=C[C@H]1c1c(O)cc(CCCCC)cc1O [CBD, Cannabidiol]
IC50 (Nav1.7 [1]): 3.81 ± 0.42 µM
Kd (Nav1.7 [2]): ~0.05 µM
IC50 (Nav1.7 [3]): 4.28 ± 0.67 µM
IC50 (Nav1.7 [4]): 3.65 ± 0.78 µM
IC50 (Nav1.7 [5]): 3.56 ± 0.58 µM
IC50 (Nav1.7 [6]): 2.46 ± 0.28 µM
